Several values for one entry are separate records, joined by “and”; a condition that tells them apart may be missing. Equal values may be shown once.
Tests used:
[1] = test system: canine coronary microvessels, epicardial coronary artery and aorta; assay: nitrite production (vascular NO release) in canine coronary microvessels, epicardial coronary artery and aorta; type: cell-based
[2] = test system: canine myocardium; assay: cardiac oxygen consumption in canine myocardium in vitro; type: cell-based
[3] = in vivo; cited from earlier work
[4] = test system: calcium channel; conditions: cited from earlier work
[5] = test system: hypoxic Langendorff mouse hearts; assay: hypoxic Langendorff mouse hearts perfused with enantiomer: myocardial glucose uptake and time to cessation of beating; conditions: hypoxic heart, 10^−7M solution
[6] = test system: vascular smooth muscle cell; conditions: in vitro; cited from earlier work
[7] = identical study, increasing concentrations

Structure (SMILES) | nitrite production (in words) [1, 7] | effect of NO synthase inhibitor L-NAME on the reduction in oxygen consumption [2] | reduction in oxygen consumption (in words) [2, 7] | dose in excess of which adverse effects arise (marked and sustained fall in blood pressure, reduced coronary blood flow) [3] | calcium channel-blocking activity of the racemate resides in [4] | effect of NO synthase inhibitor L-NAME on the increase in nitrite production [1] | concentration-dependent increase in nitrite production, up to ([1]; enantiomer concentration of 10^−9M) | free concentration at which maximum NO release as measured by nitrite production was observed ([1]; free concentration) | reduction in oxygen consumption ([2]; enantiomer concentration of 10^−5M) | increase in survival time [5] | reduction in myocardial glucose uptake [5] | time to cessation of beating (TCB) ([5]; untreated 9 minutes) | myocardial glucose uptake (MGU) ([5]; untreated hypoxic 0.57, normoxic 0.36) | PDGF-induced vascular smooth muscle cell migration [6]
CCOC(=O)C1=C(COCCN)NC(C)=C(C(=O)OC)[C@@H]1c1ccccc1Cl (single isomer, unassigned) [S(−) enantiomer] | no evidence of nitrite production | not blocked | a reduction in oxygen consumption was observed | > 0.5 mg/kg | largely, but not exclusively | – | – | – | – | – | – | – | – | –
CCOC(=O)C1=C(COCCN)NC(C)=C(C(=O)OC)[C@H]1c1ccccc1Cl (single isomer, unassigned) [R(+) enantiomer] | – | wholly or partly blocked | – | – | – | wholly or partly blocked | about 65 pmol/mg | 10^−9 M and 0.4 ng/ml | about 30% | three-fold | over 50% | about 33 minutes | 0.27 μg/min.mg | inhibit
